The values below come from US7037644B1, “Means and methods for monitoring non-nucleoside reverse transcriptase inhibitor antiretroviral therapy and guiding therapeutic decisions in the treatment of HIV/AIDS” (ViroLogic, Inc., priority 1998, dated 2006).

Structures are written as SMILES. Entries after “also recorded” stand apart in the source; their conditions may differ.

For assay [1], the system named is RTV with L100I mutation alone. Put plainly: Phenotypic susceptibility assay (site directed mutant RTV). Format: cell-based, HIV-1. The source says: (§1) The resistance test vectors containing a functional luciferase gene cassette were constructed and host cells were transfected with the resistance test vector DNA. The resistant test vectors contained patient-derived reverse transcriptase and protease sequences that were either susceptible or resistant to the antiretroviral agents, such as nucleoside reverse transcriptase inhibitors, non-nucleoside reverse transcriptase inhibitors and protease inhibitors. The resistance test vector viral particles produced by transfecting the resistance test vector DNA into host cells, either in the presence or absence of protease inhibitors, were used to infect target host cells grown either in the absence of NRTI or NNRTI or in the presence of increasing concentrations of the drug. The amount of luciferase activity produced in infected target host cells in the presence of drug was compared to the amount of luciferase produced in infected target host cells in the absence of drug. Drug resistance was measured as the amount of drug required to inhibit by 50% the luciferase activity detected in the absence of drug (inhibitory concentration 50%, IC50). The IC50 values were determined by plotting percent drug inhibition vs. log10 drug concentration.
(§2) Host cells were seeded in 10-cm-diameter dishes and were transfected several days after plating with resistance test vector plasmid DNA and the envelope expression vector. Transfections were performed using a calcium-phosphate precipitation procedure. The cell culture media containing the DNA precipitate was replaced with fresh medium, from one to 24 hours, after transfection. Cell culture media containing resistance test vector viral particles was harvested one to four days after transfection and was passed through a […] filter before being stored at […]. HIV capsid protein (p24) levels in the harvested cell culture media were determined by an EIA method as described by the manufacturer (SIAC; Frederick, Md.). Before infection, target cells (293 and 293/T) were plated in cell culture media. Control infections were performed using cell culture media from mock transfections (no DNA) or transfections containing the resistance test vector plasmid DNA without the envelope expression plasmid. One to three or more days after infection the media was removed and cell lysis buffer (Promega) was added to each well. Cell lysates were assayed for luciferase activity (FIG. 3). The inhibitory effect of the drug was determined using the following equation: % luciferase inhibition=1−(RLUluc [drug]÷RLUluc)×100 where RLUluc [drug] is the relative light unit of luciferase activity in infected cells in the presence of drug and RLUluc is the Relative Light Unit of luciferase activity in infected cells in the absence of drug. IC50 values were obtained from the sigmoidal curves that were generated from the data by plotting the percent inhibition of luciferase activity vs. the log10 drug concentration. The drug inhibition curves are shown in (FIG. 3).
The mutations Y188L, L100I and K103N were introduced alone and in combinationn into resistance test vectors using the mega-primer method for site-directed mutagenesis (Sakar and Sommar, Ibid.).

Assay [2] concerns RTV-964, patient 98-964 (RT Y181I). Put plainly: Phenotypic susceptibility assay (patient RTV). The note with it: patient RTV pool. Format: cell-based, HIV-1. The method, then: (§3) The resistance test vectors containing a functional luciferase gene cassette were constructed and host cells were transfected with the resistance test vector DNA. The resistant test vectors contained patient-derived reverse transcriptase and protease sequences that were either susceptible or resistant to the antiretroviral agents, such as nucleoside reverse transcriptase inhibitors, non-nucleoside reverse transcriptase inhibitors and protease inhibitors. […] The IC50 values were determined by plotting percent drug inhibition vs. log10 drug concentration.
(§4) Host cells were seeded in 10-cm-diameter dishes and were transfected several days after plating with resistance test vector plasmid DNA and the envelope expression vector. […] HIV capsid protein (p24) levels in the harvested cell culture media were determined by an EIA method as described by the manufacturer (SIAC; Frederick, Md.). […] The inhibitory effect of the drug was determined using the following equation: % luciferase inhibition=1−(RLUluc [drug]÷RLUluc)×100 where RLUluc [drug] is the relative light unit of luciferase activity in infected cells in the presence of drug and RLUluc is the Relative Light Unit of luciferase activity in infected cells in the absence of drug. […]

The subject of assay [3] is RTV-268, patient 97-268 (RT M41L, D67N, M184V, L210W, T215Y, K219Q, P236L). Put plainly: Phenotypic susceptibility assay (patient RTV). The format is cell-based, HIV-1. The note with it: patient virus RTV-268 vs reference virus.
Excerpt: as §1, §2
A resistance test vector was constructed as described in Example 1 from a patient sample designated 97-268. This patient had been treated with AZT and 3TC (NRTIs), indinavir and saquinavir (PRIs) and delavirdine (an NNRTI) for periods varying from 1 month to 2 years. Isolation of viral RNA and RT/PCR was used to generate a patient derived segment that comprised viral sequences coding for all of PR and amino acids 1-313 of RT. The patient derived segment was inserted into a indicator gene viral vector to generate a resistance test vector designated RTV-268. RTV-268 was then tested using the phenotypic susceptibility assay to determine accurately and quantitatively the level of susceptibility to a panel of anti-retroviral drugs. This panel of anti-retroviral drugs comprised members of the classes known as NRTIs (AZT, 3TC, d4T, ddI and ddC), NNRTIs (delavirdine and nevirapine), and PRIs (indinavir, nelfinavir, ritonavir, and saquinavir). An IC50 was determined for each drug tested. […]

The subject of the next assay is Y188H-RTV. Put plainly: Phenotypic susceptibility assay (site directed mutant RTV). The format is cell-based, HIV-1. The note with it: Y188H alone. The method, then:
as §3, §4

The target in assay [4] is RT with P236L substitution (Human immunodeficiency virus type 1 group M subtype B, UniProt P04585, P823L). To be noted: P236L substitution sensitizes RT; cited from earlier work.
A further assay deals with Y181 C mutation variant. The note with it: Y181C selected during nevirapine monotherapy; cited from earlier work.

In the case of `Cc1ccnc2c1NC(=O)c1cccnc1N2C1CC1` [nevirapine], the “loss of susceptibility (fold, IC50) vs wild type control RTV” value in assay [1] was 3 fold; with Y188H-RTV, 3.5 fold. Besides, the “decrease in susceptibility (fold, IC50)” value in assay [2] stood at 750 fold. Further, the “change in susceptibility” value in assay [3] is “no change; also recorded: same as wild type”. Also, the “reduction of IC50” value in assay [4] is listed as 7- to 10 fold. Also, the reduction in sensitivity in the assay on Y181 C mutation variant is 100 fold.
